# Patent publication US20230218573A1, “INDOLE COMPOUNDS FOR THE TREATMENT OF NEURODEGENERATIVE DISEASES” (GALYAN BIO, INC., priority 2020, published 2023)
# pKd: −log10 of the molar value. Entries after “also recorded” stand apart in the source; their conditions may differ.
# Legend:
# [1] = Microsomal stability in mice; format: in vitro ADME
# [2] = Body weight of R6/2 mice under chronic administration; format: in vivo
# Experimental: (§1) Methods - Total of 20 female and male R6/2 mice and 10 female and male wild-type littermate control mice (WT) were used in the study. The mice were genotyped and the R6/2 mice were divided into different treatment groups based on their litter and baseline body weight. The treatment with Vehicle or Compound 22(33 mg/kg; 5 ml/kg, i.p. QD) was started at 4 weeks of age after the baseline behavioral tests (FIG. 10). Body weights were measured at 3 weeks of age and twice a week until the end of the study.
# (§2) The experimental groups were: • Group 1) 10 wild-type mice (mixed gender) treated with Vehicle (5 ml/kg, i.p., QD) starting at 4 weeks of age • Group 2) 10 R6/2 mice (mixed gender) treated with Vehicle (5 ml/kg, i.p., QD) starting at 4 weeks of age • Group 3) 10 R6/2 mice (mixed gender) treated with Compound 22 (33 mg/kg; 5 ml/kg, i.p. QD) starting at 4 weeks of age
# (§3) 44.3.7 - Compound Delivery and Dosing - Treatment with Compound 22 (33 mg/kg; 5 ml/kg, i.p. QD) or Vehicle was started at age week 4 and continued until the 12 weeks of age. The test articles were handled and stored and the dose formulations were prepared according to detailed instructions provided by the Sponsor.
# 44.3.8 - Body Weight - Body weight was measured starting at 3 weeks of age before treatment onset and two times per week on the same day (on Monday and Friday) until the end of the study.
# [3] = tested on: R6/2 mice of Huntington's disease; test: Rotarod latency in R6/2 mice; format: in vivo; details: for rotarod performance versus vehicle treated R6/2 mice: 33 mg/kg i.p. QD
# Experimental: as §1, §2, §3
# 44.3.9.1 - Rotarod - The Rotarod test was perfomed at 4 (pre-treatment baseline), 6, 8 and 10 weeks of age. Each testing day included a training trial of 5 min at 4 RPM on the Rotarod apparatus (AccuScan Instruments, Columbus, USA). 30 minutes later, the animals were tested for 3 consecutive accelerating trials of 6 min with the speed changing from 0 to 40 RPM over 360 seconds and with an inter-trial interval of at least 30 min. The latency to fall from the rod was recorded. Mice remaining on the rod for more than 360 s were removed and their time scored as 360 sec.
# 10 female R6/2 mice and 10 female wild-type littermate control mice (F1 generation) were bred by Charles River Laboratories, Sulzfeld, Germany by mating (F0 generation) WT males (C57BL/6J; systematically re-infused with pedigreed JAX mice, stock 000664) with ovarian transferred (OT) TG females (JAX, stock 006494). […]
# [4] = tested on: R6/2 mice of Huntington's disease; test: Grip strength in R6/2 mice; format: in vivo; details: 33 mg/kg i.p. QD; 4-12 weeks of age
# Experimental: as §1
# The experimental groups were: • Group 1) 10 wild-type mice (mixed gender) treated with Vehicle (5 ml/kg, i.p., QD) starting at 4 weeks of age • Group 2) 10 R6/2 mice (mixed gender) treated with Vehicle (5 ml/kg, i.p., QD) starting at 4 weeks of age • Group 3) 10 R6/2 mice (mixed gender) treated with Compound 22 (33 mg/kg; 5 ml/kg, i.p. QD) starting at 4 weeks of age […]
# Mice were taken to the experimental room and, one at a time, were placed on the grip strength apparatus (San Diego Instruments, San Diego, USA) in such a way that the animal grabbed a small mesh grip with its forepaws. […] Five scores were recorded per animal in consecutive sequence, and the average of three best scores for each animal was used for the results. […]
# Exon1 Q46 = test: Circular dichroism of Exon1 Q46, predominantly α-helical state; format: biochemical; details: increasing doses
# Experimental: Protein samples were diluted with buffer to 7.5 µM prior to Circular Dichroism (CD) measurements. Measurements were conducted at room temperature.
# Four spectra at each measurement were taken every 1 nm from 200 to 260 nm, scanning at 50 nm/min with an averaging time of 1 sec. Spectra were obtained from samples in 20 mM phosphate, pH 7.4. Ten scans were averaged for each sample spectrum
# Single-wavelength readings at 222 nm were obtained. After subtraction of the Trx contribution, the α-helical content of Httex1 was estimated from its mean residue ellipticity (MREHttex1) at 222 nm. This calculation was conducted as described by Bravo-Arredondo (Bravo-Arredondo, J.M. et al., J Biol Chem. 2018 Dec 21;293(51):19613-19623).
# MRE Exon-1 […] and Q46 (Mean Residue Ellipticity) was measured every 1 sec for 300 sec; the 301 readings for each sample were averaged and MRE Trx subtracted. The number of amino acids in each sample to experience a change in helicity was estimated using a previously developed helix-coil transition model, which gave the change in fraction of helicity (ΔfHelix) by the following equation: […]
# where MRE Exon1 Q26 or Q46 (MREHttex1 in the formula) describes the helix-coil transition, obtained from the difference between MRE Eon1 Q26 or Q46 at 222 nm of the fusion protein at the given temperature (in our case 37° C.) and the product of MRE Trx at 222 nm at the same temperature and the fraction of residues comprised by Trx in that particular construct, and
# In order to calculate an equilibrium of the two states model, percent α-helicity was calculated using the relation of MREHttex1 = 0 and -34700 (deg cm^2 dmol^-1) for 0% and 100% helicity, respectively.
# The CD measurements protocol for Compound 101 was the same as outlined above except that from 206 nm - 210 nm and 220 nm - 224 nm, the step size was 0.2 nm, and the bandwidth was 1 nm.
# Exon1 Q46 protein = biological target: T1, Exon1 Q46 protein (Homo sapiens, UniProt P42858, INS38QQQQQQQQQQQQQQQQQQQQQQQQQ); test: Kd to Exon1 Q46 protein; format: binding
# T1 construct: fused on or other part: E. coli thioredoxin (TRX) at the N-terminus as a solubility handle; linker […]; C-terminal GSG-His6 tag
# Slc32a1 = test: Nanostring gene expression in STHdh 111/111 cells: Slc32a1; format: cell-based, mouse; details: treated STHdh 111/111 (Q111-10), 48 h; in comparison to untreated STHdh 111/111
# Experimental: (§4) Gene expression of certain transcripts of interest were measured using Nanostring Technology. […] Some STHdh 7/7 and STHdh 111/111 cell samples were not heat shocked and some wells were treated with Compound 22 at the indicated concentration on for 48 hours (Table 12). Some STHdh 7/7 and STHdh 111/111 cell samples were heat shocked for 3 hours some wells were treated with Compound 22 at the indicated concentration on for 48 hours (Table 13). Cells are washed with PBS, trypsinised, and gathered in a 15 ml falcon tube. After a short spin down for 3 minutes at 300 g, the cell pellet was washed with PBS once, before it was frozen down in liquid nitrogen. RNA was extracted with a standard protocol. The nCounter® Mouse Neuropathology Panel (Nanostring, Seattle) was used for gene expression analysis according to the manufacturer’s protocols.
# KCNA1 = test: Nanostring gene expression in STHdh 111/111 cells: Kcna; format: cell-based, mouse; details: treated STHdh 111/111 (Q111-10), 48 h; in comparison to untreated STHdh 111/111
# Experimental: as §4
# T1 sequence (P42858 whole entry, looked up, stated change not applied, the tested form may be a part): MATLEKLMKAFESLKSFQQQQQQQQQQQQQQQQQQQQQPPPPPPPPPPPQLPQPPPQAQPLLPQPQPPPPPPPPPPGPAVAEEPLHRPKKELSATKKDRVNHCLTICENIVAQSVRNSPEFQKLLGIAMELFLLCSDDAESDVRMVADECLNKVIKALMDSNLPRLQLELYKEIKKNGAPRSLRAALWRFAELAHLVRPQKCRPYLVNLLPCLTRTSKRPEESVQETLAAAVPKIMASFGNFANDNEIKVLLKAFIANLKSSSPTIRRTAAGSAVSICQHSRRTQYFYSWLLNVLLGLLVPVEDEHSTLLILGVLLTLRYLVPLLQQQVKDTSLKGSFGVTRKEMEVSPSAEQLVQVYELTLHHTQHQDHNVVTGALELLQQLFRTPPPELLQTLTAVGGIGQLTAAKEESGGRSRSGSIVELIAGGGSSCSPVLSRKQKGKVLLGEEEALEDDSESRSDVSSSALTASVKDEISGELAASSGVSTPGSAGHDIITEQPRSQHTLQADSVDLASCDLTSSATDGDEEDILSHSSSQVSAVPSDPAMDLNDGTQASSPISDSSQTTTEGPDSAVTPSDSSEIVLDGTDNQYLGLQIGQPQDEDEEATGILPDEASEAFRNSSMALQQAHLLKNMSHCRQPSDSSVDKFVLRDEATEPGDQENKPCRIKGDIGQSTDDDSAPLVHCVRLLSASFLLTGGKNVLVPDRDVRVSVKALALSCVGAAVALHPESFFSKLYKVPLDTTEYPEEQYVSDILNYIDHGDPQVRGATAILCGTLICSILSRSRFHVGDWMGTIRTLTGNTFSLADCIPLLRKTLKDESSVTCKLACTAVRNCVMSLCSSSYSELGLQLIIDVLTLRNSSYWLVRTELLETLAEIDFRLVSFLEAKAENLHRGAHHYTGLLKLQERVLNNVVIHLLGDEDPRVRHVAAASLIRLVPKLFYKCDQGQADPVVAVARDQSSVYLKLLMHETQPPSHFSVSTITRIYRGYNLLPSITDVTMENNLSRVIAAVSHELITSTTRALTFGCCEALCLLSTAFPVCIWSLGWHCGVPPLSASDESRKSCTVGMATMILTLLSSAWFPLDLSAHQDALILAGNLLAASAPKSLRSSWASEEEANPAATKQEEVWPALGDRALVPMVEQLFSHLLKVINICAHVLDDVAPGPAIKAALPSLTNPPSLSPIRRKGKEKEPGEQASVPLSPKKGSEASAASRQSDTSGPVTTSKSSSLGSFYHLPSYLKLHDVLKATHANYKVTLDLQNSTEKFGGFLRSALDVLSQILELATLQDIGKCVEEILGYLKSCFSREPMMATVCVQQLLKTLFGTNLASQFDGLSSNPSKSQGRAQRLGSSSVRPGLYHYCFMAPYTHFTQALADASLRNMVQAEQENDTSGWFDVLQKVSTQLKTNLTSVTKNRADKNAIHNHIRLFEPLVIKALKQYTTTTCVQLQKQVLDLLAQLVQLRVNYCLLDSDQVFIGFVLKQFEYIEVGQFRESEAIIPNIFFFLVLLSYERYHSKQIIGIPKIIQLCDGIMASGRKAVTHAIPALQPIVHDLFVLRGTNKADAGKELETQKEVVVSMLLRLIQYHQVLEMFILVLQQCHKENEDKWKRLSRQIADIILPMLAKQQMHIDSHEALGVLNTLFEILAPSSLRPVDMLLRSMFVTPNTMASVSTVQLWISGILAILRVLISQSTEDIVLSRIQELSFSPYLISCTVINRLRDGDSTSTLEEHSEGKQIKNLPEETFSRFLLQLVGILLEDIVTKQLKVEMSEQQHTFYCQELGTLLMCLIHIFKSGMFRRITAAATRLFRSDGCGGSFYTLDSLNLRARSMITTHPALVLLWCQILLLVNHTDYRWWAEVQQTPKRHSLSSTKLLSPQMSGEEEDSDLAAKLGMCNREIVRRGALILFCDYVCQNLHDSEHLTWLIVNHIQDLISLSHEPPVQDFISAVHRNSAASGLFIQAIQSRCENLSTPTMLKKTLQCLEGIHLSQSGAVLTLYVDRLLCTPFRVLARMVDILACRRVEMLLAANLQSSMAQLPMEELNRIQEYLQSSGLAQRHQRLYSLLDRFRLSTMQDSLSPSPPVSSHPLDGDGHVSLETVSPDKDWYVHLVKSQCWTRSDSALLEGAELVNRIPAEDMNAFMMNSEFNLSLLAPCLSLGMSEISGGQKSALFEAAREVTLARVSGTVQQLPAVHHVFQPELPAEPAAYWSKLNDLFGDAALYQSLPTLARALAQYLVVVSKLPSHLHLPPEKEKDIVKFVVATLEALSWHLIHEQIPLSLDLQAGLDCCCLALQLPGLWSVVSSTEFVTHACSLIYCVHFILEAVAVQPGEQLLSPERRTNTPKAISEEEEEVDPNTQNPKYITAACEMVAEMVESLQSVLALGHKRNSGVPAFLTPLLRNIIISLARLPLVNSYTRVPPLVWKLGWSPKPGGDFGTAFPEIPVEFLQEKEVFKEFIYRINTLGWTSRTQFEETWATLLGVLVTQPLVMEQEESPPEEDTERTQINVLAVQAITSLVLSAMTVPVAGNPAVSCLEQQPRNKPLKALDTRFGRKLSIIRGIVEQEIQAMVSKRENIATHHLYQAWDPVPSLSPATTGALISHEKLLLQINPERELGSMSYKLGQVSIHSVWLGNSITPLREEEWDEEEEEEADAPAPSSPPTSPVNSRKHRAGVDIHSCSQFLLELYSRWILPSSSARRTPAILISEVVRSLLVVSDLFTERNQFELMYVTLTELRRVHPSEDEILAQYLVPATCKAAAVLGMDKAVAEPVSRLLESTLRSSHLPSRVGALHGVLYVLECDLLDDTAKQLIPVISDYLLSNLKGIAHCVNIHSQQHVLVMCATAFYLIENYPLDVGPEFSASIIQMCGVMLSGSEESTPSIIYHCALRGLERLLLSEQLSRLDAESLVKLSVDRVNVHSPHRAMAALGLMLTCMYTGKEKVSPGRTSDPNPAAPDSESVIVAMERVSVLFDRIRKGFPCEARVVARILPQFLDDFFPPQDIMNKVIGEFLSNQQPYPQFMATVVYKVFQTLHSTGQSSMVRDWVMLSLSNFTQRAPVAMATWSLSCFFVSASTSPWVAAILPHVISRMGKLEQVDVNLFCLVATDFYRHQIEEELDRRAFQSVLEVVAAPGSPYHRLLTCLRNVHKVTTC
smiles,measurement,setting,value
Cc1[nH]c2ccc(C(=O)NCCN(C(C)C)C(C)C)cc2c1C [Compound 22],microsomal stability,[1],short
same,body weight versus vehicle treated R6/2 mice,"[2]; 33 mg/kg i.p. QD from 4 to 12 weeks of age, pooled genders, females, males",no significant differences
same,body weight loss versus untreated female R6/2 mice,"[2]; female R6/2 mice, week 12, 33 mg/kg i.p. QD",significantly improved
same,body weight loss improvement versus untreated male R6/2 mice,"[2]; male R6/2 mice, week 12, 33 mg/kg i.p. QD",not observed
same,improvement of latency to fall in comparison to untreated model mice,"[3]; R6/2 mice, 10 weeks of age",94%
same,rotarod performance versus vehicle treated R6/2 mice,"[3]; female R6/2 mice, 10 weeks of age, 33 mg/kg",significantly improved rotarod performance; also recorded: almost doubled the latency to fall
same,rotarod performance versus vehicle treated R6/2 mice,[3]; pooled genders or males,no significant differences
same,grip strength versus vehicle treated R6/2 mice,[4],no significant differences
same,effect of increasing doses on the predominantly α-helical state of Exon1 Q46,Exon1 Q46,decreases the proportion of a predominantly α-helical state
same,pKd,Exon1 Q46 protein,6.15
same,Slc32a1 expression upregulated,Slc32a1,12 fold
same,Kcna1 expression increased by,KCNA1,68%
